The values that follow come from patent publication US11596716B2, “Compounds and matrices for use in bone growth and repair” (Human BioMolecular Research Institute, priority 2013, dated 2023).

The test system of data set [1] is Human embryonic stem cells E15 (hESCs). In words: qPCR of TLR4/TLR3 ratio and Collagen I in human embryonic stem cells E15. It is filed as cell-based. The settings on record: 500 nM, 8 days. As to the method:
Human embryonic stem cells E15 (hESCs) obtained from ATCC with less than 15 passages were cultured at 37° C. in 5% CO2 in DMEM media supplemented with 15% heat inactivated FBS and 1× GlutaMax. TLRs are biomarkers of stem cell differentiation. TLR4 expression is an osteogenic biomarker and TLR3 expression is an adipogenic biomarker. […]
On the technique in general: Real-time PCR tracks product formation cycle by cycle.

Data set [2] relates to hMSCs. Kind of data set: Transwell migration of hMSCs to calcium phosphate matrix. The data set is classed as cell-based, human. As to the method:
Human MSC migration to the site of bone injury is an important part of the repair process. […] After 8 hrs, compounds were washed off the cells and cells placed in a traditional transwell migration system. The top reservoir contained serum-free DMEM and the bottom reservoir contained DMEM plus 2% FBS. After incubation overnight, non-migrated cells were removed, migrated cells (stuck in the bottom chamber) were then fixed with 70% EtOH (40 mins) and total migrated cells were counted under a microscope after staining with 1 mg/mL of crystal violet (1 hr). hMSCs treated with compound 2 (500 nM, 8 hr) induced a 10-fold greater cell migration to the matrix than DMSO-pre-treated cells under the conditions described above. In a separate experiment, matrix that was pre-coated with compound 4 (as prepared in Example 5) was placed in the bottom chamber and migration of hMSCs from the top chamber was evaluated. Compound 4-coated matrix induced a 2-fold increase in cell migration to the matrix compared to DMSO-treated cells.
hMSC migration was analyzed by using calcium phosphate matrix that had been pre-adsorbed with compounds 1 or 2 (500 nM, as described in Example 5) and studied in the transwell system (2% serum, described above). Compound 1 and 2 induced 3.5-fold and 1.9-fold more cell migration than non-coated ceramic. While non-limiting, these examples show the utility of the approach for increased cell migration and localization to the calcium phosphate ceramic matrix when compounds of the disclosure are present. Use of compounds of Formula II, IV, and VI to pre-coat the ceramic and also pretreat the cells is also of utility.

For data set [3], the system named is hMSCs. Kind of data set: Oil Red O staining (adipogenesis) in hMSCs. It is filed as cell-based, human. Conditions: for effect on adipogenesis, densitometry of cell culture images: 500 nM every 48 hr for 25 days, TCP 5 mg/mL; for adipogenesis (Oil Red O staining) compared to vehicle-treated hMSCs: presence or absence of matrix, 25 days. As to the method:
Oil Red O Staining: Oil Red O (ORO, 1-(2,5-dimethyl-4-(2-5-dimethylphenyl) phenyldiazenyl) azonapthalen-2-ol) was used to stain for the presence of adipocytes. An ORO solution was prepared to afford a 0.03% final concentration in dH2O. hMSCs were cultured as described above for Alizarin Red Staining (Example 7) in 48-well plates. On day 25 of cell incubation, cells were fixed with 4% formaldehyde for 40 mins at room temperature. Cells were stained for 1 hr followed by washes with dH2O (1 mL) until the wash water was clear (without red elutes). Cell culture images were taken under a microscope and quantified by densitometry.

In data set [4] the test system is hMSCs. Kind of data set: Alcian Blue staining (chondrogenesis) in hMSCs. It is filed as cell-based, human. The settings on record: 25 days; for effect on chondrogenesis, densitometry of cell culture images: 500 nM, TCP 5 mg/mL; for chondrogenesis (Alcian Blue staining) compared to vehicle-treated hMSCs: presence or absence of matrix. As to the method:
Alcian Blue Staining: Alcian Blue staining was used to stain for the presence of chondrocytes. Alcian Blue solution (1% wt/volume, acetic acid, pH 2.5). hMSCs were cultured as described above for the Alizarin Red S Staining assay (Ex. 7) in 48-well plates. After 25 days of cell culture, cells were fixed with 4% formaldehyde (40 mins) at room temperature, stained for 1 hr followed by washing with dH2O (1 mL) until water was clear (without blue elutes). Cell culture images were taken under a microscope and quantified by densitometry.

A short description of data set [5]: Prodrug hydrolysis in phosphate buffer determined by HPLC. The data set is classed as physicochemical. As to the method: 3 provided 54 (described in Example 3) through prodrug hydrolysis as determined by HPLC.
Within 5 minutes, the hydrolysis of 3 produced compound 84 (described in Example 3) that is the mono hydrolysis product of the bis(amino acid) pro-drug 3. Within 15 minutes, compound 54 that is the fully hydrolyzed product from 3 (and 84) was prominent in solution. By 77 minutes, most of 3 was hydrolyzed while compound 84 and compound 54 persisted.

For data set [6], the system named is hMSCs. Kind of data set: TLR4/TLR3 mRNA expression ratio by qPCR in hMSCs. The data set is classed as cell-based, human. Conditions: 500 nM, 8 days. From the text: TLRs are modulators of hMSC differentiation. TLRs (TLR1-10) mRNA could be detected by qPCR in hMSCs. TLR4 is a biomarker for osteogenesis and TLR3 is a biomarker for adipogenesis. […]
Data set [7] in a line: Solubility in water. The data set is classed as physicochemical.
Data set [8] deals with Wnt transcription. In words: WNT transcriptional reporter assay (Super(8×)TOPflash luciferase, HEK293T cells). The data set is classed as cell-based. The settings on record: Homo sapiens, HEK-293T, Wnt3A-expressing vector, 20 hrs, relative to cells treated with DMSO alone, read-out: Wnt transcription potency. From the text:
Commercially available Super(8×)TOPflash vector driven by a (7×) TCF-firefly luciferase response element was transiently transfected into HEK293T cells, together with a TK-driven Renilla luciferase plasmid as an internal control to normalize the luminescence signal and a Wnt3A-expressing vector as the source of pathway activation. HEK293T cells were transfected with plasmids in DMEM plus 10% fetal bovine serum (FBS) for 8 hr, replated to 96-well plates in DMEM plus 10% FBS followed by treatment with compounds (1.6 nM to 5 M) (DMSO final concentration is 0.5%) for 20 hrs. Firefly and Renilla luciferase activities were measured and normalized by the Renilla luciferase values.
A general note: In a reporter assay the amount or activity of a reporter protein is the signal.

With `CC(C)[C@H](N)C(=O)Oc1ccc(/C=C/C(O)=C2\CCC/C(=C\c3ccc(OC(=O)[C@@H](N)C(C)C)cc3)C2=O)cc1` [Compound 4, 4-((1E,3Z)-3-(3-((E)-4-((L-valyl)oxy)benzylidene)-2-oxocyclohexylidene)-3-hydroxyprop-1-en-1-yl)phenyl L-valinate], in data set [1], the “increase of TLR4/TLR3 ratio in hESCs” value is given as 2 fold. Moreover, in data set [2] (matrix pre-coated with compound in bottom chamber), the “cell migration to compound-coated matrix compared to DMSO-treated cells” value is 2 fold. In addition, in data set [3], the “effect on adipogenesis, densitometry of cell culture images” value is reported as “modestly inhibitory to adipogenesis” and the “adipogenesis (Oil Red O staining) compared to vehicle-treated hMSCs” value is “no increase in adipogenesis”. For the same compound, in data set [4], the “effect on chondrogenesis, densitometry of cell culture images” value is “modestly inhibitory on chondrogenesis” and the “chondrogenesis (Alcian Blue staining) compared to vehicle-treated hMSCs” value was “no increase in chondrogenesis”.

For the compound `CC(C)[C@H](N)C(=O)Oc1ccc(C=CC(=O)C=C(O)C=Cc2ccc(OC(=O)[C@@H](N)C(C)C)cc2)cc1` [Compound 3, (2S,2′S)—O,O′-(3-hydroxy-5-oxohepta-1,3,6-triene-1,7-diyl)bis(4,1-phenylene) bis(2-amino-3-methylbutanoate)], the “increase of TLR4/TLR3 ratio in hESCs” value in data set [1] was determined as 2 fold. In addition, in data set [5] (pH 6.5 PBS), the persistence of compound is at least 77 min, the “time until compound 54 (fully hydrolyzed product) was prominent in solution” value is at most 15 min and the “time until hydrolysis produced compound 84 (mono hydrolysis product)” value is at most 5 min. Further, the “persistence for over an hour in pH 7.5 buffer” value in data set [5] (pH 7.5 buffer, versus pH 6.5 phosphate buffer (10 mM)) is on record as “not in pH 7.5 buffer”. Moreover, the “TLR4/TLR3 ratio, compound alone” value in data set [6] is “modest increase”. For the same compound, in data set [3], the “effect on adipogenesis, densitometry of cell culture images” value is reported as “modestly inhibitory to adipogenesis” and the “adipogenesis (Oil Red O staining) compared to vehicle-treated hMSCs” value was “no increase in adipogenesis”. In data set [4], the “effect on chondrogenesis, densitometry of cell culture images” value is reported as “modestly inhibitory on chondrogenesis” and the “chondrogenesis (Alcian Blue staining) compared to vehicle-treated hMSCs” value is on record as “no increase in chondrogenesis”. Besides, the solubility in water entry in data set [7] was “greater than 10 mg/mL”.

As for `CC(=O)N1c2ccc(C)cc2[C@H](Nc2ccc(C)cc2)C[C@@H]1C` (relative stereo) [Compound 1, cis-1-acetyl-2,6-dimethyl-N-(p-methylphenyl)-1,2,3,4-tetrahydroquinolin-4-amine], the “cell migration to matrix pre-adsorbed with compound versus non-coated ceramic” value in data set [2] (500 nM, transwell, 2% serum) is reported as 3.5 fold. For the same compound, the “TLR4/TLR3 ratio, compound alone” value in data set [6] was “modest increase”. Moreover, the EC50 in data set [8] was under 15 nM.
